The source of these data is US20140073637A1, “AMINO-SUBSTITUTED-ALKYLOXY-BENZO[E]PYRIDO[4,3-B]INDOLE DERIVATIVES AS NEW POTENT KINASE INHIBITORS” (INSTITUT CURIE, priority 2011, published 2014).

One may read the IC50 as the concentration that gives 50% inhibition.

Like-named read-outs stand apart in the source and are kept apart here.

The target in one assay is Aurora B (Homo sapiens, UniProt Q96GD4). As to the kind of experiment: Aurora B inhibition in cells: Histone H3 Ser10 phosphorylation by western blotting and immunofluorescence. Format: cell-based. Also on record: endogenous in cells; host or cells: U2OS (human osteosarcoma); HeLa also used for the maleate salts; key to Aurora B inhibition: +++: very efficient inhibition; −: no inhibition. Conditions: for Aurora B inhibition in cellulo (Histone H3 phosphorylation, in words): U2OS mitotic extracts, 1 μM overnight, western blotting (FIG. 3); for Aurora B inhibition: cells, Histone H3 Ser10 phosphorylation, western blotting and immunofluorescence, compounds 1 μM. On the procedure: Actin is used as control of quantity. Cells were incubated overnight in the presence of either C1, or C2 or CH21 or C14 or DMSO(C: control). All compounds were tested at 1 μM. Proteins were detected by western blotting.
Sequence of Aurora B (Q96GD4 whole entry): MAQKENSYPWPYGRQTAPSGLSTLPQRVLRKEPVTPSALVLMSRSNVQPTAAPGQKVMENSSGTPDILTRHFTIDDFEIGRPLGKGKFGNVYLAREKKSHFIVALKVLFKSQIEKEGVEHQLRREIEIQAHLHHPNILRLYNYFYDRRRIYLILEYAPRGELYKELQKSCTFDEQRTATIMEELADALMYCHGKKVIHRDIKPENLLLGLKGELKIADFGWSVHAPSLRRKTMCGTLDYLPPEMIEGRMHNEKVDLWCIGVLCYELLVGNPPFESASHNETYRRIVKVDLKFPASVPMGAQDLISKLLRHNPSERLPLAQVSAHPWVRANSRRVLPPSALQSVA
Cells were incubated with the different molecules and Aurora B inhibition is estimated by western blotting (WB) and immuno fluorescent experiments. Histone H3 phosphorylated on Ser10 is used as a marker of Aurora B kinase activity and actin as an internal control. Each WB signal is compared to the control in the absence of compound. The efficiency estimated by WB is indicated by +++: very efficient inhibition to −: no inhibition. Immunofluorescent labelling of a mitotic cell by Histone H3 illustrates Aurora B kinase activity. However immunofluorescence is less sensitive than WB. Active molecules are underlined by a square and the intensity of the line indicates the efficiency of inhibition.
FIG. 10A: Immunofluorescence with phospho-Ser10-Histone H3 antibodies. Either the percentage of positive phospho-Ser10-Histone H3 is indicated or a representative mitosis shown. […] Immunofluorescent assays were realized with a specific phospho-antibody and mitotic U2OS cells are recognized by their DNA content stained with Hoechst. On the right, a representative cell or the percentage of H3-S10-P labelled mitosis.
FIG. 10B: Immunoblotting analysis of histone H3 phosphorylation. U2OS cells were incubated overnight with Nocodazole (50 nM) in the presence of either DMSO (Co) or Compounds (1 μM). Cells were then collected and lyzed. Identical amounts of the lyzed cell samples were run on 18% acrylamide gel containing SDS.
FIGS. 11B and 11C: Immunoblotting analysis of histone H3 phosphorylation. U2OS and HeLa cells were incubated overnight with Nocodazole (50 nM) in the presence of either DMSO (Co) or Compounds (1 μM). Cells were then collected and lyzed. Identical amounts of the lyzed cell samples were run on 18% acrylamide gel containing SDS.
Cells were incubated with the different molecules and Aurora B inhibition is estimated by western blotting and immunofluorescent experiments. Histone H3 phosphorylated on Ser10 is used as a marker of Aurora B kinase activity and actin as an internal control. Results are represented in FIGS. 4 and 10 and Table 3.
Cells were treated by compounds, harvested and lyzed in 9M urea then supplemented with Laemmli sample buffer. Cell extracts were subjected to SDS-PAGE and transferred to nitrocellulose filter (GE Healthcare). After blocking with 5% non-fat milk in PBS for at least 1 hour, the membranes were incubated with the primary antibodies. The following antibodies were used: phospho-Histone H3 Ser10 (1:2000, Upstate Biotechnology), anti LAST1 (Cell signalling), anti Aurora B (epitomics) and anti alpha-tubulin (Sigma) Anti-rabbit horseradish peroxidase (1:5000, GE Healthcare) was used as secondary antibodies. Bands were visualized by ECL technique (Amersham Bioscience).
Cells were seeded on glass coverslips and treated by compounds (1 μM) overnight. After treatment, cells were fixed in 4% formaldhehyde at 37° C. for 15 minutes, then permeabilized for 5 minutes with Triton X-100 in PBS.

In the next assay the test system is HeLa cells. The assay is described as follows: Cell viability / antiproliferative assay. The class given is cell-based. The note with it: Homo sapiens, HeLa. The text has this: Antiproliferative assays with HeLa cells have been performed with the preferred compounds and compared to the C1 and C2. The average of three independent experiments is shown. IC50 obtained with C1 and C2 were previously reported in Hoang et al, 2009, and are indicated for comparison. The lateral chain of each molecule is recalled, knowing that all the molecules have an oxo group at position 11. IC50 are indicated, i.e. the concentration that induced 50% death.
H358, H322 (lung cancer cells), U373 (glioblastomes) and HeLa ([…]) were grown in DMEM (1.5 g/L glucose) whereas HL60 (human myeloid cell line) cells were in RPMI 1640. U2OS (a human osteosarcoma cell line) cells were cultured in McCoy's Medium 5 A and liver cells (SK Hep 1) in DMEM (4 g/L glucose, (Gibco-Invitrogen). Media (Gibco-Invitrogen), were supplemented with 10% heat-inactivated foetal bovine serum (Gibco-Invitrogen), L-glutamine (2 mM), penicillin (100 UI/ml) and streptomycin (100 μg/ml).
Cell proliferation assays were conducted in 96 well culture plates. Assays were run in triplicate. Cell viability was estimated upon 72 h of treatment with varying concentrations of compound by addition of CellTiter 96Queous one Solution Reagent (Promega) directly to culture wells under conditions defined by the manufacturer.

In the next assay the target is RSK2 (Homo sapiens, UniProt P51812). As to the kind of experiment: In vitro assay against recombinant kinases (FIG. 2). The class given is biochemical. On the procedure:
(§1) Assays were run in vitro against recombinant kinases. The activity is reported for each kinase, grey histograms for CH21, white for C14 and gradation grey for C1. […] Therefore, C1 and C14 affect differently the Aurora kinase family.
(§2) The profiling was performed at the MRC (Dundee University), in duplicate, on a set of 121 kinases. The panel is representative of the major different classes of kinases. Compounds were used at the concentration of 1 μM. In vitro, IC50 were determined on recombinant kinases by Reaction biology Corp (USA).

The target of a further assay is RSK1 (Homo sapiens, UniProt Q15418). The description is as above. Format: biochemical. On the procedure:
as §1, §2

The target in another assay is Src (Homo sapiens, UniProt P12931). Described as above. Format: biochemical. On the procedure: as §1, §2
Sequence of Src (P12931 whole entry, species assumed): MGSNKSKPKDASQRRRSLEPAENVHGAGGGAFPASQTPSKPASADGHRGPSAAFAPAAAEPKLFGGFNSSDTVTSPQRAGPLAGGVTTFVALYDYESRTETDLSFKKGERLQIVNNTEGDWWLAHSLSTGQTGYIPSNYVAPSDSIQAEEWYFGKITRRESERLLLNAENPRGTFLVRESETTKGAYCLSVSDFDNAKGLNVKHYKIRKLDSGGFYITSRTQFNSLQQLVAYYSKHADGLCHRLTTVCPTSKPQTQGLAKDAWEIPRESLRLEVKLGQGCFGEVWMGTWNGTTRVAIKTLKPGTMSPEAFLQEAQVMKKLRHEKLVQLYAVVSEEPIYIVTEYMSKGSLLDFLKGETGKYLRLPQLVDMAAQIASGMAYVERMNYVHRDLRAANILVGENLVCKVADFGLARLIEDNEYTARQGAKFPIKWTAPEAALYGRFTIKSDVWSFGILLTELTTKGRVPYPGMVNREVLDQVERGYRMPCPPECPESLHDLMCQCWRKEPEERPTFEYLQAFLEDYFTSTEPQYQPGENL
The mark [1] stands for this setting: 72 h, HeLa (Cervix), 72 h of treatment, read-out: IC50 (cell line viability).

Sequence of RSK2 (P51812 whole entry): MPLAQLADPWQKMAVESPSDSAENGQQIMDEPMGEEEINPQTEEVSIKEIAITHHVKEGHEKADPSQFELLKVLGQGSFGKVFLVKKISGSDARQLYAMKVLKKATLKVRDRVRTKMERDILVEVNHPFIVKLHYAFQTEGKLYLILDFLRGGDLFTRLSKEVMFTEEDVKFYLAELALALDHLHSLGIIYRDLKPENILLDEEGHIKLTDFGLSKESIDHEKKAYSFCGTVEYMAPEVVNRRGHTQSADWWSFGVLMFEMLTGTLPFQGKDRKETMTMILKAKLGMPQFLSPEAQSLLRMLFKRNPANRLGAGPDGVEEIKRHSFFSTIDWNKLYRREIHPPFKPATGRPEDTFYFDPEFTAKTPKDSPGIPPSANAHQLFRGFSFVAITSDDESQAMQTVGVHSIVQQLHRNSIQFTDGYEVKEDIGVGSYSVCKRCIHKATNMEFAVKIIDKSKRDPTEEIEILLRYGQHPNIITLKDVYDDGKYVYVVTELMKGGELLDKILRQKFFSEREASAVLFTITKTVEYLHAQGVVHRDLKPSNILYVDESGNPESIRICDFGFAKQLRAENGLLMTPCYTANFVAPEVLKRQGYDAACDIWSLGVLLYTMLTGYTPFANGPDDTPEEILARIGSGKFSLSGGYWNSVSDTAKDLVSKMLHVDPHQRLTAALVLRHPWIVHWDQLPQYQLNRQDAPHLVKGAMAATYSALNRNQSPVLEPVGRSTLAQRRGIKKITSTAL
Sequence of RSK1 (Q15418 whole entry, species assumed): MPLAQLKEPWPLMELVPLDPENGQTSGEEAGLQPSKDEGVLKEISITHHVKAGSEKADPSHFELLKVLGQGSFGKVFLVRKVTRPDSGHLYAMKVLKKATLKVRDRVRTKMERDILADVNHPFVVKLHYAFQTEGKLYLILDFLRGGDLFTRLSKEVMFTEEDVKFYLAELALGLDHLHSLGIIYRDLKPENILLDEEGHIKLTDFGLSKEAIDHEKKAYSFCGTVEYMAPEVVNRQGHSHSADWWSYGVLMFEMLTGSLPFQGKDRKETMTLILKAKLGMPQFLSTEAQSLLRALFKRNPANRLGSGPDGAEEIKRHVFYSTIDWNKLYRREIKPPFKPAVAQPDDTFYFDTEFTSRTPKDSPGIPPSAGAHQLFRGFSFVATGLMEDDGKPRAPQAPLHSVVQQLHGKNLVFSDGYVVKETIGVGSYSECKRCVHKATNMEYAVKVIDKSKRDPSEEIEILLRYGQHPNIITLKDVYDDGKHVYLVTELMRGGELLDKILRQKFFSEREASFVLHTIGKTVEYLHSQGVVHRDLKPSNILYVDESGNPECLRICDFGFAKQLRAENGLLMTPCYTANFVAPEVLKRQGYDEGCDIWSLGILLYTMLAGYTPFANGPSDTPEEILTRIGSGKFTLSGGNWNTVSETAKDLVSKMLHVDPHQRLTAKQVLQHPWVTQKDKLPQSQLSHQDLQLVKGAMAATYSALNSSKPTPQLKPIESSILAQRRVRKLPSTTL

`Cc1c[nH]c(=O)c2c1[nH]c1ccc3cc(OCCN(C)C)ccc3c12` [Compound C14, 3-(2-N,N-Dimethylaminoethoxy)-8-methyl-7H,10H-benzo[e]pyrido(4,3-b)indol-11-one]: the “Aurora B inhibition in cellulo (Histone H3 phosphorylation, in words)” value (shortened to “Aurora B inhibition in cellulo”) at Aurora B was “inhibit efficiently”. The “Aurora B inhibition” value on Aurora B is reported as “+++”. The IC50 in the assay with HeLa cells (setting [1]) came to 110 nM; in the assay on HeLa cells (HeLa cells, average of three independent experiments, concentration that induced 50% death, read-out: IC50 (in nM), antiproliferative assay) it was 170 ± 82 nM. In addition, the “effect on kinase activity (FIG. 2, in words)” value (from here on “effect on kinase activity”) on RSK2, on RSK1 and on Src was “not affected” in each case.

Regarding `Cc1cncc2c1[nH]c1ccc3cc(OCCN(C)C)ccc3c12` [CH21, 3-(2-N,N-dimethylaminoethyloxy)-8-methyl-7H-benzo[e]pyrido(4,3-b)indole], at Aurora B, the “Aurora B inhibition in cellulo” value was “no effect”. Moreover, the “Aurora B inhibition” value at Aurora B is listed as “−”. Moreover, the IC50 in the assay with HeLa cells (setting [1]) was determined as 350 nM. Further, the “effect on kinase activity” value at RSK2, at RSK1 and at Src was “None of these kinases were significantly affected” in each case.

For `CCc1c[nH]c(=O)c2c1[nH]c1ccc3cc(OC)ccc3c12` [Compound C1, reference compound], the “Aurora B inhibition in cellulo” value on Aurora B is “inhibit efficiently”. Besides, the “Aurora B inhibition” value at Aurora B is on record as “+++”. Besides, in the assay on HeLa cells (setting [1]), the IC50 is 960 nM. Moreover, the “effect on kinase activity” value on RSK2, on RSK1 and on Src was “highly inhibited” in each case.
